Data reported in patent publication US20200405657A1, “TREATMENT OF PAIN USING ALLOSTERIC MODULATOR OF TRPV1” (priority 2019, published 2020).
“Also recorded” adds a separate entry of the source.

Legend:
Assay type in all cases: cell-based
rat TRPV1 [1] = target: T1, rat TRPV1 (Rattus norvegicus, UniProt O35433); experiment: TRPV1-mediated calcium influx (Fluo-4) in HEK cells inducibly expressing TRPV1; conditions: for calcium influx in response to individual terpene / calcium flux in response to individual cannabinoid: HEK+TRPV1 cells; for calcium influx in response to individual terpene: each terpene applied alone; for calcium flux in response to individual cannabinoid: each cannabinoid applied alone
T1 construct: FLAG; expressed in transfected cells; host or cells: TRex HEK293 (pcDNA6TR), rat TRPV1 cDNA in pcDNA4TO, tetracycline-induced
T1 sequence (O35433 whole entry): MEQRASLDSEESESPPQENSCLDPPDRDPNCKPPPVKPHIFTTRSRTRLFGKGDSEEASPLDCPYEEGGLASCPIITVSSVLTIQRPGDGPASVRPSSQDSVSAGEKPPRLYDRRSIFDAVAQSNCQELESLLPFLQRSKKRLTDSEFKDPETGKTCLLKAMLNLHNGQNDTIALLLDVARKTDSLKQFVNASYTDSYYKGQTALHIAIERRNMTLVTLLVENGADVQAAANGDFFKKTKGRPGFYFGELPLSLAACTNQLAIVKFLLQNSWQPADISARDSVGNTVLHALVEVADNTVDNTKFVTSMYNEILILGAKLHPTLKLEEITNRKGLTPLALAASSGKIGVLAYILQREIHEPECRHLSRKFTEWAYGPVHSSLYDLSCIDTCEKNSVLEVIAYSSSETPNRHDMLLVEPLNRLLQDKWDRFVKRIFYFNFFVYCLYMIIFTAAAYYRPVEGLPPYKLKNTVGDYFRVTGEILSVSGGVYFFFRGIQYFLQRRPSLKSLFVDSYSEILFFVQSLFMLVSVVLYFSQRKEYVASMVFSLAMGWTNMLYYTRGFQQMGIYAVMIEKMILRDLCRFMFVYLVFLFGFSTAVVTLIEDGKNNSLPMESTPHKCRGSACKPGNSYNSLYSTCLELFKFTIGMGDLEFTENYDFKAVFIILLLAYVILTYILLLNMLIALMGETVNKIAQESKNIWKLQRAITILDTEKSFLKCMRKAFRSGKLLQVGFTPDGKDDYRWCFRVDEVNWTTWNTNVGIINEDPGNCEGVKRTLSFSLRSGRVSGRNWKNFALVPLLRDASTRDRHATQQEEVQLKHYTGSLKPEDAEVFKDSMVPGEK
Protocol: The HEK293 cell line was stably transfected with the pcDNA6TR (Invitrogen, CA) plasmid (encoding the tetracycline-sensitive TREx repressor protein), and was maintained in DMEM+10% fetal bovine serum (inactivated at 55° C. for 1 h)+2 mM glutamine in humidified 5% CO2 atmosphere at 37° C. Selection pressure on the TRex 293 cells was maintained by continuous culture in 10 μg/ml Blasticidin (Sigma, St Louis, Mo.).
For production of TRex HEK293 cells with inducible expression of TRPV1, parental cells were electroporated with the rat TRPV1 cDNA in the pcDNA4TO vector and clonal cell lines were selected by limiting dilution in the presence of 400 μg/ml zeocin (Invitrogen, CA). TRPV1 expression was induced using 1 μg/ml tetracycline for 16 h at 37° C.
(§1) Calcium responses mediated by TRPV1 were tested by calcium assay in the cell culture system. Cells were washed and incubated with 0.2 μM fluo-4 acetoxymethyl ester (“Fluo-4”) for 30 minutes at 37° C. in a standard modified Ringer's solution of the following composition (in mM): NaCl 145, KCl 2.8, CsCl 10, CaCl2 10, MgCl2 2, glucose 10, Hepes.NaOH 10, pH 7.4, 330 mOsm. Cells were transferred to 96-well plates at 50,000 cells/well and stimulated as indicated. Calcium signals were acquired using a Flexstation 3 (Molecular Devices, Sunnydale, USA). Data was analyzed using SoftMax® Pro 5 (Molecular Devices). Where indicated, nominally calcium-free external conditions were achieved by the preparation of 0 mM CaCl2 Ringer solution containing 1 mM EGTA. Where indicated, capsaicin (10 μM) and ionomycin (500 nM) were used as positive controls to induce calcium responses. Capsazepine (10 μM) was used where indicated to specifically antagonize TRPV1-mediated calcium responses. Where indicated, baseline traces (no stimulation, NS) were subtracted. Where indicated, vehicle alone traces were subtracted. Where indicated, vehicle comprising various diluents matched to corresponding mixtures was used as a negative control.

TRPV1 = TRPV1 (Rattus norvegicus, UniProt O35433); experiment: TRPV1 desensitization over multiple sequential ligand applications (FIG. 13); conditions: Area Under the Curve analysis, calcium assays or electrophysiology
Sequence of TRPV1 (O35433 whole entry): as above

rat TRPV1 [2] = target: T1, rat TRPV1; experiment: Whole-cell patch clamp in single HEK293 cells overexpressing rat TRPV1; conditions: for outward current: 5 μM myrcene or 1 μM capsaicin; for inward current: average of 6 independent experiments
Protocol: HEK293 cells were kept in sodium-based extracellular Ringer's solution containing 140 mM NaCl, 1 mM CaCl2, 2 mM MgCl2, 2.8 mM KCl, 11 mM glucose, and 10 mM HEPES-NaOH, pH 7.2 and osmolarity 300 mOsmol. The cells' cytosol was perfused with intracellular patch pipette solution containing 140 mM Cs-glutamate, 8 mM NaCl, 1 mM MgCl2, 3 mM MgATP, and 10 mM HEPES-CsOH. The standard internal Ca^2+ concentration was buffered to 180 nM with 4 mM Ca and 10 mM BAPTA. The level of free unbuffered Ca was adjusted using the calculator provided with WebMaxC (http://www.stanford.edu/˜cpatton/webmaxcS.htm). The pH of the final solution was adjusted to pH 7.2 and osmolarity measured at 300 mOsmol.
1 μM capsaicin was used as a positive control for TRPV1 activation. Rapid extracellular solution application and exchange was performed with the SmartSquirt delivery system (Auto-Mate Scientific, San Francisco). The system includes a ValveLink TTL interface between the electronic valves and the EPC-9 amplifier (HEKA, Lambrecht, Germany). This configuration allows for programmable solution changes via the PatchMaster software (HEKA, Lambrecht, Germany).
Patch-clamp experiments were performed in the whole-cell configuration at 21-25° C. Patch pipettes had resistances of 2-3 MΩ. Data was acquired with PatchMaster software controlling an EPC-9 amplifier. Voltage ramps of 50 ms spanning the voltage range from −100 to 100 mV were delivered from a holding potential of 0 mV at a rate of 0.5 Hz over a period of […]. Voltages were corrected for a liquid junction potential of 10 mV. Currents were filtered at 2.9 kHz and digitized at 100 us intervals. Capacitive currents were determined and corrected before each voltage ramp. The development of currents for a given potential was extracted from individual ramp current records by measuring the current amplitudes at voltages of −80 mV and +80 mV. Data were analyzed with FitMaster (HEKA, Lambrecht, Germany), and IgorPro (WaveMetrics, Lake Oswego, Oreg., USA). Where applicable, statistical errors of averaged data are given as mean±s.e.m.

HEK wild type cells = experiment: Calcium flux (Fluo-4) in wild-type HEK cells without the TRPV1 construct; conditions: for calcium response to individual cannabinoid: cells without TRPV1
Protocol: as §1
When wild-type HEK cells without the TRPV1 construct were presented with the same stimulus conditions, calcium fluxes were not observed (FIGS. 5A-5C).

## CC(C)=CCC[C@](C)(O)[C@@H]1CC=C(C)CC1 [Bisabolol, 6-methyl-2-(4-methylcyclohex-3-en-1-yl)hept-5-en-2-ol]
Rat TRPV1 [1]
  calcium influx in response to individual terpene: not observed

## C=C(C)[C@@H]1CCC(C)=C[C@H]1c1c(O)cc(CCCCC)cc1O [Cannabidiol]
TRPV1
  desensitization of the channel: cause desensitization
Rat TRPV1 [2]; 30 μM CBD
  Imax of activated current: up to 5 nA
Rat TRPV1 [2]; CBD
  Erev of rectifying current: ~0 mV
Rat TRPV1 [2]; capsazepine application, washout of CBD
  sensitivity of CBD-induced current: sensitive to both capsazepine and washout
Rat TRPV1 [1]
  calcium flux in response to individual cannabinoid: most potent; also recorded: calcium flux was detected
HEK wild type cells
  calcium response to individual cannabinoid: only minimal or absent

## C=CC(C)(O)CCC=C(C)C (stereo not drawn) [Linalool, 3,7-dimethyl-1,6-octadien-3-ol]
Rat TRPV1 [1]
  calcium influx in response to individual terpene: not observed

## C=CC(=C)CCC=C(C)C [Myrcene, 7-methyl-3-methylideneocta-1,6-diene]
TRPV1
  desensitization of the channel: cause desensitization
Rat TRPV1 [2]
  outward current: lower amplitude than the inward current
Rat TRPV1 [2]; 5 μM myrcene, 1 μM capsaicin
  TRPV1 channel state on activation (IV relationship): primarily in State 1
Rat TRPV1 [2]; 5 μM myrcene, 1 mM Ca
  inward current: approximately 0.5 nA
Rat TRPV1 [2]; 5 μM, 10 μM and 150 μM myrcene
  current induced: 0.5-2.2 nA
Rat TRPV1 [2]; 5, 10, 150 μM
  dose response of current in individual cells: dose-dependent response
Rat TRPV1 [2]; Myrcene at 0 mM external Ca2+, then Cannabidiol at 1 mM external Ca2+, versus no prior Myrcene
  response to second stimulus Cannabidiol after prior Myrcene saturation: suppressed
Rat TRPV1 [2]; producing nA currents
  activator strength at TRPV1: strong activator of TRPV1
Rat TRPV1 [1]; 0 mM external calcium + 1 mM EGTA, 3.5 μg/ml
  calcium-mediated fluorescence, calcium-free medium, high concentration: induced such increase
Rat TRPV1 [1]; 0 mM external calcium + 1 mM EGTA, 0.43, 0.875 and 1.75 μg/ml
  calcium-mediated fluorescence, calcium-free medium, low concentrations: did not cause increase
Rat TRPV1 [1]; 3.5, 1.75, 0.875 and 0.43 μg/ml
  calcium response to different concentrations of myrcene: dose-dependent
Rat TRPV1 [1]
  calcium influx in response to individual terpene: significant agonist activity
Rat TRPV1 [1]; listed as myrcene
  calcium influx in response to individual terpene: significant calcium flux was detected; also recorded: did not account for 100% of the calcium influx signal
HEK wild type cells; wild-type HEK cells without TRPV1, myrcene 0.43-3.5 μg/ml
  calcium influx, calcium-free medium: not observed or were only minimal
HEK wild type cells; wild-type HEK cells, 3.5-0.43 μg/ml, compared with HEK+TRPV1
  calcium flux in response to myrcene: much smaller

## C=CC(C)(O)CCC=C(C)CCC=C(C)C (stereo not drawn) [Nerolidol, 3,7,11-Trimethyl-1,6,10-dodecatrien-3-ol]
Rat TRPV1 [1]
  calcium influx in response to individual terpene: more modest agonist activity; also recorded: activated TRPV1-mediated Ca^2+ influx
Rat TRPV1 [1]; listed as nerolidol
  calcium influx in response to individual terpene: significant calcium flux was detected

## C=C/C(C)=C/CC=C(C)C [Ocimene]
Rat TRPV1 [1]
  calcium influx in response to individual terpene: not observed

## CCCCCc1cc(O)c2c(c1)OC(C)(CCC=C(C)C)C=C2 (stereo not drawn) [cannabichromene, Cannabichromene]
Rat TRPV1 [1]
  calcium flux in response to individual cannabinoid: most potent; also recorded: calcium flux was detected
HEK wild type cells
  calcium response to individual cannabinoid: only minimal or absent

## C=C(C)[C@@H]1CCC(C)=C[C@H]1c1c(O)cc(CCCCC)c(C(=O)O)c1O [cannabidiolic acid, Cannabidiolic Acid]
Rat TRPV1 [1]
  calcium flux in response to individual cannabinoid: most potent; also recorded: calcium flux was detected
HEK wild type cells
  calcium response to individual cannabinoid: only minimal or absent

## C=C(C)[C@@H]1CCC(C)=C[C@H]1c1c(O)cc(CCC)cc1O [cannabidivarin, Cannabidivarin]
Rat TRPV1 [1]
  calcium flux in response to individual cannabinoid: most potent; also recorded: calcium flux was detected
HEK wild type cells
  calcium response to individual cannabinoid: only minimal or absent

## CCCCCc1cc(O)c(C/C=C(\C)CCC=C(C)C)c(O)c1C(=O)O [cannabigerolic acid, Cannabigerolic Acid]
Rat TRPV1 [1]
  calcium flux in response to individual cannabinoid: most potent; also recorded: calcium flux was detected
HEK wild type cells
  calcium response to individual cannabinoid: only minimal or absent

## COc1cc(CNC(=O)CCCC/C=C/C(C)C)ccc1O [capsaicin, reference compound]
TRPV1
  desensitization of the channel: can cause desensitization
Rat TRPV1 [2]; 1 μM capsaicin
  current induced: 4-10 nA
Rat TRPV1 [2]; 1 μM capsaicin after myrcene
  inward current: approximately 9 nA
Rat TRPV1 [2]
  outward current: lower amplitude than the inward current
Rat TRPV1 [2]; 5 μM myrcene, 1 μM capsaicin
  TRPV1 channel state on activation (IV relationship): dilated state
Rat TRPV1 [1]; TRPV1-induced HEK cells
  capsaicin-specific calcium flux: capsaicin-specific calcium fluxes
HEK wild type cells; HEK wild type cells without a construct encoding TRPV1
  capsaicin calcium flux: not detected

## Oc1cc2c(cc1O)CN(C(=S)NCCc1ccc(Cl)cc1)CCC2 [capsazepine, reference compound]
Rat TRPV1 [1]; cells activated with 3.5 μg/ml myrcene, 10 μM capsazepine
  myrcene-induced calcium flux in response to TRPV1 inhibitor: diminished
